From ChEMBL document CHEMBL3991601, “The target landscape of clinical kinase drugs” (Science, 2017)
Where a name gives a salt, the structure may show the parent alone. The source made the active and inactive calls. Rule as the data show it, for most assays here: actives have a measured Kd and inactives only a lower limit.

What was measured:
[1] = molecular target: Tyrosine-protein kinase HCK (Homo sapiens, UniProt P08631)
[2] = molecular target: T1, Serine/threonine-protein kinase D3 (Homo sapiens, UniProt O94806)
T1 sequence (O94806 whole entry): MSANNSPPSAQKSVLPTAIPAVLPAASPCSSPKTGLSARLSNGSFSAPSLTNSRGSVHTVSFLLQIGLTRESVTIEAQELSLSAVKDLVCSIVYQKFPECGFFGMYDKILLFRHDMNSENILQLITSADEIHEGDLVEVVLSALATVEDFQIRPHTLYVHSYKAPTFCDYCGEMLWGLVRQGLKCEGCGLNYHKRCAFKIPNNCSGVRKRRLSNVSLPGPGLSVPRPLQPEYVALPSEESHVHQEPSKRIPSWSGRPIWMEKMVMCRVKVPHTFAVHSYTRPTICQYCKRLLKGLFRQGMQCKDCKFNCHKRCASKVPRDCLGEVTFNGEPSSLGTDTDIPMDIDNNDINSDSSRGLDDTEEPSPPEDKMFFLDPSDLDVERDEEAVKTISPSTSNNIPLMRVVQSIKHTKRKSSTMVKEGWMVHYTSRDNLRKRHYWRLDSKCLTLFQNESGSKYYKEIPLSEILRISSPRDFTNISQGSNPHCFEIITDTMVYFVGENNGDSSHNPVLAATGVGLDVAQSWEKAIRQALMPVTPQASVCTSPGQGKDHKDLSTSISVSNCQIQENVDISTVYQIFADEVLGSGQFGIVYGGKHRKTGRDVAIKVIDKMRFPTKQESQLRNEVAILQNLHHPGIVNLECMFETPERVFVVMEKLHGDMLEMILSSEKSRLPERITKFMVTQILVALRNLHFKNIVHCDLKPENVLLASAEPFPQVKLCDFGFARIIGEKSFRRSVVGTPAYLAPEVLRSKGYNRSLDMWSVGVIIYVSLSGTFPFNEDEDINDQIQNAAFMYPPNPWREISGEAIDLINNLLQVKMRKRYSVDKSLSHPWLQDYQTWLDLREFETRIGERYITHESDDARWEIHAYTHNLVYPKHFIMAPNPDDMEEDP

[3] = molecular target: Receptor-interacting serine/threonine-protein kinase 2 (Homo sapiens, UniProt O43353)
Sequence of Receptor-interacting serine/threonine-protein kinase 2 (O43353 whole entry): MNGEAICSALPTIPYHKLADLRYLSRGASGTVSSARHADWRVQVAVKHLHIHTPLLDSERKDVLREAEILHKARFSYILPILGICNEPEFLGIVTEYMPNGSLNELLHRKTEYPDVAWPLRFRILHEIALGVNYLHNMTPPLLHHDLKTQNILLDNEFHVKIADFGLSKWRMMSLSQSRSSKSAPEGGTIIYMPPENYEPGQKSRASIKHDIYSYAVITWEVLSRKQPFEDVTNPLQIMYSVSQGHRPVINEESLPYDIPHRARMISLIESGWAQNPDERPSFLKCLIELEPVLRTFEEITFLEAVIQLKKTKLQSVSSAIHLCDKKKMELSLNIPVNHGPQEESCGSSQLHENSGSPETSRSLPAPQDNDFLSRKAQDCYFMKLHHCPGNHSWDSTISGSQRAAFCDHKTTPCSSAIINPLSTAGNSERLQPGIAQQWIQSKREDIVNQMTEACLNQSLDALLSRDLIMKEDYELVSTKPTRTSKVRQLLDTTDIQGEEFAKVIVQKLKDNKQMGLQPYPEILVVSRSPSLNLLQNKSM

[4] = molecular target: T2, Serine/threonine-protein kinase 3 (Homo sapiens, UniProt Q13188)
T2 sequence (Q13188 whole entry): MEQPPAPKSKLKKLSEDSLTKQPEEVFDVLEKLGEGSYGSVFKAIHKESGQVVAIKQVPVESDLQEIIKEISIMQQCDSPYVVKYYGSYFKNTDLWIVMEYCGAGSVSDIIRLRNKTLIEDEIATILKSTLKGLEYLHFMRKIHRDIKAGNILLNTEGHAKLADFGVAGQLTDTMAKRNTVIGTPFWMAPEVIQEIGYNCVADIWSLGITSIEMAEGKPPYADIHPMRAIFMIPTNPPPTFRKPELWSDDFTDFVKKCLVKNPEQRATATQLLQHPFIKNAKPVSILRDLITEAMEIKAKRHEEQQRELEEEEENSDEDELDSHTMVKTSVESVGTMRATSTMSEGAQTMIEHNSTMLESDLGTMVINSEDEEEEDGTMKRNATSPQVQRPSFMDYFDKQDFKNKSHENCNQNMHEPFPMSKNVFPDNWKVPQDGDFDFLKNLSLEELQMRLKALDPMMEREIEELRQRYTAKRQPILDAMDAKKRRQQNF

[5] = molecular target: T3, Thyroid hormone receptor-associated protein 3 (Homo sapiens, UniProt Q9Y2W1)
T3 sequence (Q9Y2W1 whole entry): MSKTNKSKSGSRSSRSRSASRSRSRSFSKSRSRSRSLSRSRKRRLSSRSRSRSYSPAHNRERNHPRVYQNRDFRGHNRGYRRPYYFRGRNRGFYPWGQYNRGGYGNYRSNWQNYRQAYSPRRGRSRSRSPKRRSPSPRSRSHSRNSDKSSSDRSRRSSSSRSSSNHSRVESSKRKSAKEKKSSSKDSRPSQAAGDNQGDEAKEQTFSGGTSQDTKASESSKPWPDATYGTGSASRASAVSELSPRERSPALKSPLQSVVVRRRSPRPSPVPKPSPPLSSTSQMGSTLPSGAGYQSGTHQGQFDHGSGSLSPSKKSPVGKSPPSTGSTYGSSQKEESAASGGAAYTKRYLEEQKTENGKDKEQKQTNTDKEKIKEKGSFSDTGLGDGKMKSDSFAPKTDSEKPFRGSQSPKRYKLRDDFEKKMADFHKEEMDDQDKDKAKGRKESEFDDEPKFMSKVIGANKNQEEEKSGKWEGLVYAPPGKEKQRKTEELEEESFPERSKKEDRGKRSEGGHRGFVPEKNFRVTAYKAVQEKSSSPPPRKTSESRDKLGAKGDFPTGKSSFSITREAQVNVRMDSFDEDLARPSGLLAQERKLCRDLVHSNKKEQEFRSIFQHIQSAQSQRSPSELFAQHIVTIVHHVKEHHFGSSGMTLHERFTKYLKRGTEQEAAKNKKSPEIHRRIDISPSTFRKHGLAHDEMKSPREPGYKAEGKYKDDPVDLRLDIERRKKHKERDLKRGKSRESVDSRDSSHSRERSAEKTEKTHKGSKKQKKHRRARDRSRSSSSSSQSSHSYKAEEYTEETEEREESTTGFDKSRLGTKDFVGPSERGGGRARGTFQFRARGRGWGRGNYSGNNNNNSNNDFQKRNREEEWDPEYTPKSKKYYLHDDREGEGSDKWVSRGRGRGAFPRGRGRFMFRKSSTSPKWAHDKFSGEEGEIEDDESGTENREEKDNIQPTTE
Also: in the data inactive means no Kd found up to 30 µM.

Sequence of Tyrosine-protein kinase HCK (P08631 whole entry): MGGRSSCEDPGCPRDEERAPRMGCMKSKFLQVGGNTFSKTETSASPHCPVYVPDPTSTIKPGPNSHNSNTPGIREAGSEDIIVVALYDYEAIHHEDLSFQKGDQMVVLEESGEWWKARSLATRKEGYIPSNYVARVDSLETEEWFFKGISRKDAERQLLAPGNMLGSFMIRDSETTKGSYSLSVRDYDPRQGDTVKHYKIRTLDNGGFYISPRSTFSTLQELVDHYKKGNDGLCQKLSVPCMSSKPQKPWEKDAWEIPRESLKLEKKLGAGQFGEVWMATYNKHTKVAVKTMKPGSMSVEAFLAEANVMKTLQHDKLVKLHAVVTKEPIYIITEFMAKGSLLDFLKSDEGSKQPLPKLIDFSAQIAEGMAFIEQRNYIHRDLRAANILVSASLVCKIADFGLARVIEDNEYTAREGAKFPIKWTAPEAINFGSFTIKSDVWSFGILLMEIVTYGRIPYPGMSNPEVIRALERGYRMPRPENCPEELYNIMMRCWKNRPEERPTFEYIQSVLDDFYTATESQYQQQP

Row | Compound | Kd [1] | Kd [2] | Kd [3] | Kd [4] | Kd [5]
1 | CN1C/C=C/CCOc2cccc(c2)-c2ccnc(n2)Nc2cccc(c2)C1 [ZOTIRACICLIB] | > 30 µM (inactive) | 0.557 µM (active) | > 30 µM (inactive) | 0.311 µM (active) | > 30 µM (inactive)
2 | Cc1cc(Nc2ncc(Cl)c(Nc3ccccc3S(=O)(=O)C(C)C)n2)c(OC(C)C)cc1C1CCNCC1 [CERITINIB] | > 30 µM (inactive) | > 30 µM (inactive) | > 30 µM (inactive) | > 30 µM (inactive) | > 30 µM (inactive)
3 | N#CC1(c2ccc(NC(=O)c3cccnc3NCc3ccncc3)cc2)CCCC1 [RIVOCERANIB] | > 30 µM (inactive) | > 30 µM (inactive) | > 30 µM (inactive) | > 30 µM (inactive) | > 30 µM (inactive)
4 | CCNC(=O)C#Cc1ccc2c(c1)NC(=O)/C2=C(\Nc1ccc(CN(C)C)cc1)c1ccccc1 | 0.9 µM (active) | > 30 µM (inactive) | > 30 µM (inactive) | 5.05 µM (active) | > 30 µM (inactive)
5 | CC(C)c1cc(CNc2nc(Nc3cc(C4CC4)[nH]n3)cc(N3CCN(C)CC3)n2)on1 [XL-228] | 6.39 µM (active) | 1.86 µM (active) | > 30 µM (inactive) | 0.462 µM (active) | > 30 µM (inactive)
6 | CO[C@H]1C[C@@H]2CC[C@@H](C)[C@@](O)(O2)C(=O)C(=O)N2CCCC[C@H]2C(=O)O[C@H]([C@H](C)C[C@@H]2CC[C@@H](O)[C@H](OC)C2)CC(=O)[C@H](C)/C=C(\C)[C@@H](O)[C@@H](OC)C(=O)[C@H](C)C[C@H](C)/C=C/C=C/C=C/1C [SIROLIMUS] | > 30 µM (inactive) | > 30 µM (inactive) | > 30 µM (inactive) | > 30 µM (inactive) | > 30 µM (inactive)
7 | Cc1cc(Nc2ncnc3ccc(NC4=NC(C)(C)CO4)cc23)ccc1Oc1ccn2ncnc2c1 [TUCATINIB] | > 30 µM (inactive) | > 30 µM (inactive) | > 30 µM (inactive) | > 30 µM (inactive) | > 30 µM (inactive)
8 | O=C(Cc1ccc(-c2ccc(OCCN3CCOCC3)cc2)cn1)NCc1ccccc1 [TIRBANIBULIN] | > 30 µM (inactive) | > 30 µM (inactive) | > 30 µM (inactive) | > 30 µM (inactive) | > 30 µM (inactive)
9 | COc1cc2ncnc(Oc3cccc(NC(=O)Nc4cc(C(C)(C)C(F)(F)F)on4)c3)c2cc1OC [CEP-32496] | > 30 µM (inactive) | > 30 µM (inactive) | 0.442 µM (active) | > 30 µM (inactive) | > 30 µM (inactive)
10 | CCS(=O)(=O)N1CCN(c2ccc(Nc3ncc(C(N)=O)c(NC4CC4)n3)cc2)CC1 [Cerdulatinib Hydrochloride] | > 30 µM (inactive) | 1.06 µM (active) | > 30 µM (inactive) | 0.062 µM (active) | > 30 µM (inactive)
11 | Cc1cc(C(=O)NOCCO)c(Nc2ccc(I)cc2F)n(C)c1=O [AZD-8330] | > 30 µM (inactive) | > 30 µM (inactive) | > 30 µM (inactive) | > 30 µM (inactive) | > 30 µM (inactive)
12 | C#Cc1cccc(Nc2ncnc3cc(OC)c(OCCCCCCC(=O)NO)cc23)c1 [CUDC-101] | > 30 µM (inactive) | > 30 µM (inactive) | 1.09 µM (active) | > 30 µM (inactive) | > 30 µM (inactive)
13 | NC1(c2ccc(-c3nc4ccn5c(=O)[nH]nc5c4cc3-c3ccccc3)cc2)CCC1 [MK-2206] | > 30 µM (inactive) | > 30 µM (inactive) | > 30 µM (inactive) | > 30 µM (inactive) | > 30 µM (inactive)
14 | Cc1nc2cc(-c3nn(C(C)C)c4ncnc(N)c34)ccc2o1 | > 30 µM (inactive) | > 30 µM (inactive) | 0.178 µM (active) | > 30 µM (inactive) | > 30 µM (inactive)
15 | O=C1NC(=O)[C@@H](c2cn3c4c(cccc24)CCC3)[C@@H]1c1c[nH]c2ccccc12 [TIVANTINIB] | > 30 µM (inactive) | > 30 µM (inactive) | > 30 µM (inactive) | > 30 µM (inactive) | > 30 µM (inactive)
